Four compounds from paper PMC8341778, “Deciphering the substrate recognition mechanisms of the heparan sulfate 3-O-sulfotransferase-3” (RSC Chemical Biology, 2021) can be followed below.

The structures appear in SMILES notation.

Assay [1] concerns the target T1, 3-OST-3 (Homo sapiens, UniProt Q9Y663).
T1 construct: gene HS3ST3A1; purified enzyme; two molecules in the asymmetric unit
T1 sequence (Q9Y663 1-406): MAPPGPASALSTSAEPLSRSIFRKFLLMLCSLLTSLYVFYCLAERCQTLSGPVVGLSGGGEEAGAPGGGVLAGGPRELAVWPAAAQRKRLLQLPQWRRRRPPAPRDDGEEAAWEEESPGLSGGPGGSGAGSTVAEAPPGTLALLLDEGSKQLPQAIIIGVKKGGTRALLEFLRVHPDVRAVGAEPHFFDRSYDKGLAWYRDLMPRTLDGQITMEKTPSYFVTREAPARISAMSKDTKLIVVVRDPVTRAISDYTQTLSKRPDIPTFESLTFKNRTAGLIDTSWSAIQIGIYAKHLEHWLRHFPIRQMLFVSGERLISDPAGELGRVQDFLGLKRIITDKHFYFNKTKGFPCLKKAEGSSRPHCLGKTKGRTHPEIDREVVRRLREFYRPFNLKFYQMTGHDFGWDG
Description: crystal structure of ternary complex, […] Å. It is filed as binding. The settings on record: with PAP; sodium ion at saccharides f and g.

Assay [2] has as its target T1, 3-OST-3. Put plainly: inhibition of sulfotransferase activity. In kind it is biochemical.
The target in assay [3] is T1, 3-OST-3. Put plainly: isothermal titration calorimetry. It is filed as binding. (Isothermal titration calorimetry measures the heat released or taken up as one component is titrated into another.)

For `CC(=O)N[C@H]1[C@@H](O[C@H]2[C@H](O)[C@@H](O)[C@H](O[C@H]3[C@H](O)[C@@H](NS(=O)(=O)O)[C@@H](O[C@H]4[C@H](O)[C@@H](OS(=O)(=O)O)[C@H](O[C@H]5[C@H](O)[C@@H](NS(=O)(=O)O)[C@@H](O[C@H]6[C@H](O)[C@@H](OS(=O)(=O)O)[C@H](O[C@H]7[C@H](O)[C@@H](NS(=O)(=O)O)[C@@H](O[C@H]8[C@H](O)[C@@H](O)[C@H](Oc9ccc([N+](=O)[O-])cc9)O[C@@H]8C(=O)O)O[C@@H]7CO)O[C@H]6C(=O)O)O[C@@H]5CO)O[C@H]4C(=O)O)O[C@@H]3CO)O[C@@H]2C(=O)O)O[C@H](CO)[C@@H](O)[C@@H]1O` [8-mer 1], at 3-OST-3 [1], the “crystal structure of ternary complex, 2.34 Å” value is reported as “crystal structures of 3-OST-3 in the presence of PAP, the sulfo donor product analog”.
Take `CC(=O)N[C@H]1[C@@H](O[C@H]2[C@H](O)[C@@H](O)[C@H](O[C@H]3[C@H](O)[C@@H](NS(=O)(=O)O)[C@@H](O[C@H]4[C@H](O)[C@@H](OS(=O)(=O)O)[C@H](O[C@H]5[C@H](OS(=O)(=O)O)[C@@H](NS(=O)(=O)O)[C@@H](O[C@H]6[C@H](O)[C@@H](OS(=O)(=O)O)[C@H](O[C@H]7[C@H](O)[C@@H](NS(=O)(=O)O)[C@@H](O[C@H]8[C@H](O)[C@@H](O)[C@H](Oc9ccc([N+](=O)[O-])cc9)O[C@@H]8C(=O)O)O[C@@H]7CO)O[C@H]6C(=O)O)O[C@@H]5CO)O[C@H]4C(=O)O)O[C@@H]3CO)O[C@@H]2C(=O)O)O[C@H](CO)[C@@H](O)[C@@H]1O` [8-mer 2]: at 3-OST-3 [2] (product inhibition, 8-mer 1 sulfation), the IC50 (as a rule, the midpoint of a concentration-inhibition curve) was approximately 1000 nM. At 3-OST-3 [3], binding was characterised by a dissociation constant (Kd) of 74000 nM.
On 3-OST-3 [2] (substrate inhibition, compound is itself slowly sulfated), `CC(=O)N[C@H]1[C@@H](O[C@H]2[C@H](O)[C@@H](O)[C@H](O[C@H]3[C@H](O)[C@@H](NS(=O)(=O)O)[C@@H](O[C@H]4[C@H](O)[C@@H](OS(=O)(=O)O)[C@H](O[C@H]5[C@H](O)[C@@H](NS(=O)(=O)O)[C@@H](O[C@H]6[C@H](O)[C@@H](OS(=O)(=O)O)[C@H](O[C@H]7[C@H](O)[C@@H](NS(=O)(=O)O)[C@@H](O[C@H]8[C@H](O)[C@@H](O)[C@H](Oc9ccc([N+](=O)[O-])cc9)O[C@@H]8C(=O)O)O[C@@H]7COS(=O)(=O)O)O[C@H]6C(=O)O)O[C@@H]5COS(=O)(=O)O)O[C@H]4C(=O)O)O[C@@H]3COS(=O)(=O)O)O[C@@H]2C(=O)O)O[C@H](COS(=O)(=O)O)[C@@H](O)[C@@H]1O` [8-mer 3] yielded an IC50 of 150 nM. The Kd (in general, the equilibrium constant for the complex coming apart) at 3-OST-3 [3] was found to be 10000 nM.
`CC(=O)N[C@H]1[C@@H](O[C@H]2[C@H](O)[C@@H](O)[C@H](O[C@H]3[C@H](O)[C@@H](NS(=O)(=O)O)[C@@H](O[C@H]4[C@H](O)[C@@H](OS(=O)(=O)O)[C@H](O[C@H]5[C@H](OS(=O)(=O)O)[C@@H](NS(=O)(=O)O)[C@@H](O[C@H]6[C@H](O)[C@@H](OS(=O)(=O)O)[C@H](O[C@H]7[C@H](O)[C@@H](NS(=O)(=O)O)[C@@H](O[C@H]8[C@H](O)[C@@H](O)[C@H](Oc9ccc([N+](=O)[O-])cc9)O[C@@H]8C(=O)O)O[C@@H]7COS(=O)(=O)O)O[C@H]6C(=O)O)O[C@@H]5COS(=O)(=O)O)O[C@H]4C(=O)O)O[C@@H]3COS(=O)(=O)O)O[C@@H]2C(=O)O)O[C@H](COS(=O)(=O)O)[C@@H](O)[C@@H]1O` [8-mer 4] returned a concentration for half-maximal inhibition (IC50) against 3-OST-3 [2] (product inhibition) of 12 nM. For the same compound, the Kd at 3-OST-3 [3] was found to be 4700 nM.
